Assays:
[1] = molecular target: PDC-3 (Pseudomonas aeruginosa, UniProt P24735, T105A); format: biochemical
[2] = system: E.coli DH10B pBCSK- PDC-3; assay: MIC by agar dilution, cefotaxime alone or with boronate, strain producing PDC-3; format: cell-based; conditions: E. coli possessing the P. aeruginosa AmpC; BATSI added to cefotaxime
[3] = system: E.coli DH10B; assay: microbe, parasite or virus in culture; format: cell-based; conditions: Escherichia coli
[4] = system: O=C(Cc1cccs1)N[C@@H]1C(=O)N2C(C(=O)O)=C(/C=C/c3ccc([N+](=O)[O-])cc3[N+](=O)[O-])CS[C@H]12; assay: purified protein, by the assay type; conditions: other: substrate; used to correct Ki; pH 7.4

O=C(Cc1cccs1)N[C@@H](Cn1cc(C(=O)O)nn1)B(O)O [Compound 13a, (1R)-2-(4-Carboxy-[1,2,3]triazol-1-yl)-1-(2-thienylacetylamino)ethaneboronic acid]
energetic contribution to binding of the carboxylate (ΔΔGbind) ([1]; 13a compared with 13f, from Ki vs PDC-3, ΔΔGbind = −RTln Ki ref/Ki): 2.2 kcal/mol | improvement in recognition caused by ring hopping (ΔΔG) ([1]; 13a compared with Reference compound B): 0.7 kcal/mol | reduction in MIC of cefotaxime [2]: five dilution (2 log) reduction

O=C(Cc1cccs1)N[C@@H](Cn1ccnn1)B(O)O [Compound 13f, (1R)-2-([1,2,3]triazol-1-yl)-1-(2-thienylacetylamino)ethaneboronic acid]
contribution of the methyltriazole to binding (ΔΔG) ([1]; 13f compared with Ref Compound A, from Ki vs PDC-3): 0.5 kcal/mol

CO/N=C(\C(=O)N[C@@H]1C(=O)N2C(C(=O)O)=C(COC(C)=O)CS[C@H]12)c1csc(N)n1 [TAX, cefotaxime]
MIC [3]: < 0.125 µg/mL

O=C(Cc1cccs1)N[C@@H]1C(=O)N2C(C(=O)O)=C(/C=C/c3ccc([N+](=O)[O-])cc3[N+](=O)[O-])CS[C@H]12 [nitrocefin, reference compound]
Km ([1]; read-out: Km of nitrocefin, PDC-3, substrate, used to correct Ki): 14.6 ± 2.2 µM

P99 (Enterobacter cloacae)
Km [4]: 20.03 ± 2.05 µM

From paper PMC5744665 (Journal of medicinal chemistry, 2015)
